US20240116875A1, “RATIONAL DESIGN, OPTIMIZATION, AND BIOLOGICAL EVALUATION OF NOVEL MEK4 INHIBITORS AGAINST PANCREATIC ADENOCARCINOMA” (NORTHWESTERN UNIVERSITY, priority 2022, published 2024)
Several values for one entry are separate records, joined by “and”; a condition that tells them apart may be missing. Equal values may be shown once. Read-outs that look alike come from different tables or passages of the source.

Experiments:
[1] = molecular target: T1, recombinant active full-length human MEK4 (Homo sapiens, UniProt P45985); test: ADP-Glo kinase activity assay, MEK4; type: biochemical
T1 construct: recombinant active full-length human MEK4 (Carna Biosciences); purchased Carna Biosciences
T1 sequence (P45985 1-399): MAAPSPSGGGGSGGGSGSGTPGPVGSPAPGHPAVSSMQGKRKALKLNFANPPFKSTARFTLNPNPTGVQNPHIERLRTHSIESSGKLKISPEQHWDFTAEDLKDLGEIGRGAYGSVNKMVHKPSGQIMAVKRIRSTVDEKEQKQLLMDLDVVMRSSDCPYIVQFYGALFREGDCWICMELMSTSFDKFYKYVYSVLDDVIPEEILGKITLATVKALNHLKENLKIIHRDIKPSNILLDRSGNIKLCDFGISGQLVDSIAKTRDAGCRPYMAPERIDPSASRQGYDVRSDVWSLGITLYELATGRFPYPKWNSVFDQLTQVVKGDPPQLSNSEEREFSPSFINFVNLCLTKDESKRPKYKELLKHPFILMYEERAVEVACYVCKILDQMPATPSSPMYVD
Method: (§1) Procedure for a 5 μL Kinase reaction using the ADP-Glo Kinase Assay Kit from Promega. Staurosporine was used as the positive control, and DMSO as the negative control. Activity of recombinant active full-length human MEK4 (Carna Biosciences) was measured using the ADP-Glo assay with recombinant full-length human p38α (MAPK14). Kinase reactions with MEK7 (Carna Biosciences) were done at the same concentration and amounts with recombinant full-length human p38α (MAPK14).
(§2) For each well, 4 ng of MEK4 and 600 ng of p38α in Kinase buffer (CST) were used, and 1 μL of this mixture was dispensed per well.
(§3) Inhibitor was prepared in a DMSO solution. A dose response dilution was done in a 384-well Echo transfer plate. […] This mixture was allowed to incubate for 30 minutes at room temperature.
(§4) Using a Mantis, 1 μL, of an 8 μM ATP solution was added to each well, and the plate was allowed to incubate for another 1 hour at room temperature. […] All experiments were done in triplicate on the plate, and at least in one separate technical duplicate.

MEK7 = molecular target: T2, MEK7 (Homo sapiens, UniProt O14733); test: ADP-Glo kinase activity assay, MEK7; type: biochemical
T2 construct: purchased Carna Biosciences
T2 sequence (O14733 1-419): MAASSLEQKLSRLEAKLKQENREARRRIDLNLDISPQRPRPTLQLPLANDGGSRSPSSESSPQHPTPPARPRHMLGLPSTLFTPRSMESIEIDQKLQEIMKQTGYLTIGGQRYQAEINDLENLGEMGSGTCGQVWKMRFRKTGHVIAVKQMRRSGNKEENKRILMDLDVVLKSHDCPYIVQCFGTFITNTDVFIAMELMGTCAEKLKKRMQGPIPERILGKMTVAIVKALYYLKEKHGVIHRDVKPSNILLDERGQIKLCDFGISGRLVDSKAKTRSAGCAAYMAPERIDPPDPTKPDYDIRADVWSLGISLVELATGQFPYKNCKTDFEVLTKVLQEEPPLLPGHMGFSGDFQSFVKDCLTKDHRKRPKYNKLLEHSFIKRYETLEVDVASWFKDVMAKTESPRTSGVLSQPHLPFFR
Method: The compounds were then evaluated both in vitro and in a cellular system. When studying kinase inhibitors, there are a multitude of ways to evaluate selectivity across kinases.
as §1, §2, §3, §4

[2] = test system: phospho-p42/44 MAPK in CD18 cells; test: p42/44 MAPK phosphorylation, western blotting, CD18; type: cell-based, human; conditions: CD18, U0126 1 μM or 5 μM, 1 hour pretreatment
Method: (§5) The effects of different treatments on phospho-p42/44 MAPK and total p42/44 MAPK expression levels were determined by western blotting. HSP90 was used as loading control. The blots are representative of at least three biological replicates.
(§6) Whole cell extracts of cultured cells were prepared in radioimmunoprecipitation (RIPA) lysis buffer supplemented with phosphatase and protease inhibitors (Calbiochem). Protein concentration was determined by the bicinchoninic acid assay (BCA) (ThermoFisher) and separated by the SDS-PAGE technique. […] Secondary anti-mouse IgG (A4416) and anti-rabbit IgG (A6667) antibodies were purchased from Sigma-Aldrich and used a 1:4000 dilution. Images of blots were acquired on HyBlot ES Autoradiography Film (Thomas Scientific, Swedesboro, NJ, USA) following incubation with SuperSignal West Pico PLUS (ThermoFisher).

[3] = test system: phospho-p42/44 MAPK in MiaPaCa2 cells; test: p42/44 MAPK phosphorylation, western blotting, MiaPaCa2; type: cell-based, human; conditions: MiaPaCa2, U0126 1 μM or 5 μM
Method: as §5, §6

[4] = test system: phospho-p38 MAPK in HEK293T cells; test: p38 MAPK phosphorylation, western blotting, HEK293T; type: cell-based, human; conditions: anisomycin alone
Method: (§7) HSP90 was used as loading control. The blots are representative of at least three biological replicates.
(§8) We next evaluated the effects of our inhibitors on the phosphorylation activity and expression of MEK1/2, MEK3/6, and MEK7. […] We also evaluated the effects on p42/44 MAPK (ERK1/2), which functions downstream of MEK1/2.
as §6

[5] = test system: phospho-p42/44 MAPK in HEK293T cells; test: p42/44 MAPK (ERK1/2) phosphorylation, western blotting, HEK293T; type: cell-based, human; conditions: anisomycin alone
Method: as §7, §8, §6

[6] = headline value per compound, read-out: IC50 (MEK4, ADP-Glo)
[7] = headline value per compound, read-out: MEK7 IC50
[8] = individual experiment, values in brackets, n=3, read-out: MEK7 IC50 of each experiment (IC50±SEM)
[9] = individual experiment, values in brackets, n=3, read-out: IC50 of each experiment (IC50±SEM), MEK4

Row | IC50 [1, 6] | IC50 (MEK7; [7]) | IC50 (MEK7; [8]) | Structure (SMILES) | other results
1 | > 80000 nM |  |  | Nc1ccccc1-c1n[nH]c2cc(F)ccc12 [Compound 8b, 2-(6-fluoro-1H-indazol-3-yl)aniline] | 
2 | > 80000 nM |  |  | CCC(=O)Nc1ccccc1-c1n[nH]c2cc(F)ccc12 [Compound 8c, N-(2-(6-fluoro-1H-indazol-3-yl)phenyl)propionamide] | 
3 | > 80000 nM |  |  | C=CC(=O)Nc1ccccc1-c1n[nH]c2cc(F)ccc12 [Compound 8d, N-(2-(6-fluoro-1H-indazol-3-yl)phenyl)acrylamide] | 
4 |  | 2700 nM | 1900 nM and 3500 nM | O=S(=O)(Nc1ccc(-c2n[nH]c3cc(F)ccc23)cc1)c1cccnc1 [Compound 11a, N-(4-(6-fluoro-1H-indazol-3-yl)phenyl)pyridine-3-sulfonamide] | 
5 |  | 1300 nM | 940 nM and 1600 nM | O=S(=O)(Nc1cccc(-c2n[nH]c3cc(F)ccc23)c1)c1cccnc1 [Compound 12a, N-(3-(6-fluoro-1H-indazol-3-yl)phenyl)pyridine-3-sulfonamide] | 
6 |  | 6400 nM | 5600 nM and 7100 nM | O=S(=O)(Nc1cccc(-c2n[nH]c3cc(F)ccc23)c1)C1CC1 [Compound 12c, N-(3-(6-fluoro-1H-indazol-3-yl)phenyl)cyclopropanesulfonamide] | 
7 |  | 8700 nM | 8100 nM and 9300 nM | O=S(=O)(NC1CC1)c1ccc(-c2n[nH]c3cc(F)ccc23)cc1 [Compound 13c, N-cyclopropyl-4-(6-fluoro-1H-indazol-3-yl)benzenesulfonamide] | 
8 |  | 840 nM | 400 nM and 610 nM and 1500 nM | O=S(=O)(Nc1ccccc1)c1cccc(-c2n[nH]c3cc(F)ccc23)c1 [Compound 14a, 3-(6-fluoro-1H-indazol-3-yl)-N-phenylbenzenesulfonamide] | 
9 |  | 2900 nM | 1800 nM and 2200 nM and 4800 nM | CC(C)Oc1ccc(NS(=O)(=O)c2cccc(-c3n[nH]c4cc(F)ccc34)c2)cc1 [Compound 15i, 3-(6-fluoro-1H-indazol-3-yl)-N-(4-isopropoxyphenyl)benzenesulfonamide] | 
10 |  | 920 nM | 590 nM and 780 nM and 1400 nM | CS(=O)(=O)c1ccc(NS(=O)(=O)c2cccc(-c3n[nH]c4cc(F)ccc34)c2)cc1 [Compound 15l] | 
11 | > 80000 nM |  |  | Cn1nc(-c2ccc3c(c2)OCO3)c2ccc(F)cc21 [Compound S2, 3-(benzo[d][1,3]dioxol-5-yl)-6-fluoro-1-methyl-1H-indazole] | 
12 | > 80000 nM |  |  | Fc1ccc2c(-c3ccc4c(c3)OCO4)nn(Cc3ccccc3)c2c1 [Compound S3, 3-(benzo[d][1,3]dioxol-5-yl)-1-benzyl-6-fluoro-1H-indazole] | 
13 | 2700 nM |  |  | Cc1ccc2c(-c3ccc(S(N)(=O)=O)cc3)n[nH]c2c1 [Compound S4, 4-(6-methyl-1H-indazol-3-yl)benzenesulfonamide] | IC50 [1, 9]: 1600 nM and 3700 nM
14 | 3700 nM |  |  | NS(=O)(=O)c1ccc(-c2n[nH]c3cc(C(F)(F)F)ccc23)cc1 [Compound S5, 4-(6-(trifluoromethyl)-1H-indazol-3-yl)benzenesulfonanamide] | IC50 [1, 9]: 2200 nM and 5200 nM
15 |  |  |  | N#CC(=C(/N)Sc1ccccc1N)/C(C#N)=C(\N)Sc1ccccc1N [Compound U0126, reference compound] | effect of U0126 co-treatment on p42/44 MAPK phosphorylation increased by 15o and 10e [2]: suppressed; effect of U0126 on p42/44 MAPK phosphorylation [3]: decreased p42/44 MAPK phosphorylation
16 |  |  |  | COc1ccc(C[C@H]2NC[C@H](O)[C@H]2OC(C)=O)cc1 [anisomycin, reference compound] | effect of anisomycin on p38 MAPK phosphorylation [4]: did induce phosphorylation; effect of anisomycin on p42/44 MAPK phosphorylation [5]: decreases p42/44 MAPK phosphorylation

Row | Structure (SMILES) | IC50 [1, 6] | IC50 (MEK7; [7]) | IC50 (MEK7; [8]) | other results
17 | CC(=O)c1ccc(NS(=O)(=O)c2cccc(-c3n[nH]c4cc(F)ccc34)c2)cc1 [Compound 15n, N-(4-acetylphenyl)-3-(6-fluoro-1H-indazol-3-yl)benzenesulfonamide] |  |  | 740 nM and 1300 nM and 1800 nM | 
